The record followed here is BindingDB's records for doi:10.1021/jm9804127 (Glaxo Wellcome Research and Development, 1999).

pEC50: −log10 of the molar value.

Molecular target in one assay: not listed separately
Briefly: Ability to promote differentiation of C3H10T1/2 stem cells to adipocytes using lipogenesis assay mediated through activation of Peroxisome proliferator activated receptor gamma.
As a reminder, the pEC50 is the negative decadic logarithm of the EC50, by convention in mol/L. Regarding `CN(CCOc1ccc(CC(Nc2ccccc2Oc2ccccc2)C(=O)O)cc1)c1nc2ccccc2o1` (configuration not stated), the pEC50 is 6.33. Compound `CN(CCOc1ccc(CC(Nc2ccccc2C(O)c2ccccc2)C(=O)O)cc1)c1ccccn1` (configuration not stated) gave a negative-log EC50 (pEC50) of 5.88. Against the preceding compound, the pEC50 is 0.45 log units lower. The same measure, in the same setting: for `CC1(COc2ccc(C[C@H](Nc3ccccc3C(=O)c3ccccc3)C(=O)O)cc2)CCCCC1` the value was 5.94; for `Cc1c(C)c2c(c(C)c1O)CCC(C)(COc1ccc(C[C@H](Nc3ccccc3C(=O)c3ccccc3)C(=O)O)cc1)O2` (some centres not stated), 6.44; for `CN(CCOc1ccc(C[C@H](Nc2ccccc2C(=O)c2ccccc2)C(=O)O)cc1)c1nc2ccccc2o1`, 8.36. Consider `CN(CCOc1ccc(CC(Nc2cccc3c2C(=O)c2ccccc2-3)C(=O)O)cc1)c1nc2ccccc2o1` (configuration not stated), for which the pEC50 is 6.24. `CN(CCOc1ccc(CC(Nc2ccccc2C(=O)Cc2ccccc2)C(=O)O)cc1)c1nc2ccccc2o1` (configuration not stated): the pEC50 is 7.33.

With `CCc1ccc(CCOc2ccc(C[C@H](Nc3ccccc3C(=O)c3ccccc3)C(=O)O)cc2)nc1`, the negative-log EC50 (pEC50) was 6.30. This pEC50 is 1.03 log units lower than that of the compound before. Compound `O=C(c1ccccc1)c1ccccc1N[C@@H](Cc1ccc(OCc2ccccc2)cc1)C(=O)O` showed a negative-log EC50 (pEC50) of 5.82.

`CN(CCOc1ccc(CC(Oc2ccccc2C(=O)c2ccccc2)C(=O)O)cc1)c1nc2ccccc2o1` (configuration not stated): the pEC50 is 5.94.

Compound `CN(CCOc1ccc(CC(Nc2ccccc2S(=O)(=O)c2ccccc2)C(=O)O)cc1)c1nc2ccccc2o1` (configuration not stated) showed a pEC50 of 5.66.

The target in a further assay is T1, Peroxisome proliferator-activated receptor gamma (Homo sapiens, UniProt P37231).
T1 sequence (P37231 whole entry): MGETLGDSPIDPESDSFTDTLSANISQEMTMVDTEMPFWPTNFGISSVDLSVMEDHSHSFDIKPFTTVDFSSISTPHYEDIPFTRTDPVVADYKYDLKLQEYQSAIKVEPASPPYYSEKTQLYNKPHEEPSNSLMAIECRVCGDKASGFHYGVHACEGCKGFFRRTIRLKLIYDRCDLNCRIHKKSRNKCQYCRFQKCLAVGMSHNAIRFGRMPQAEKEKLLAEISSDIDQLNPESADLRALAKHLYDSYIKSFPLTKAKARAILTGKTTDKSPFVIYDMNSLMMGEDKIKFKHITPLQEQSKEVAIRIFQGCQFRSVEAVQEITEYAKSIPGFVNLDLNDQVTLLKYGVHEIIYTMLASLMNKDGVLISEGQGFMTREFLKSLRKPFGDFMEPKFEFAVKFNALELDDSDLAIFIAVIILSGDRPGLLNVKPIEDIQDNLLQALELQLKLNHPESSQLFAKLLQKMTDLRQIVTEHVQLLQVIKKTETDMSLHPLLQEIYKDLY
Nature of the assay: Ability to promote differentiation of C3H10T1/2 stem cells to adipocytes using lipogenesis assay mediated through activation of Peroxisome proliferator activated receptor gamma.
Take `CN(CCOc1ccc(CC(Nc2ccccc2C(N=N)c2ccccc2)C(=O)O)cc1)c1ccccn1` (configuration not stated): the negative-log EC50 (pEC50) is 5.91.
